From article PMC7774954, “Interactomic affinity profiling by holdup assay: Acetylation and distal residues impact the PDZome-binding specificity of PTEN phosphatase” (PLoS ONE, 2020)
*1 amine or outer side, *2 acyl side, *3 side chain or, on linkers, in order; H or OH if unused. Where a SMILES comes first, the peptide text is derived from it. The star is where a group is joined. X1 = O=C(CCCC[C@@H]1SC[C@@H]2NC(=O)N[C@@H]21)NCCCOCCOCCOCCCN*; Suc = O=C(CCC(=O)[*:2])[*:1]

Tests used:
LIN7A-1 = experiment: Holdup assay, LIN7A-1; format: binding, human
DFNB31-3 = target: T1, DFNB31-3 (Homo sapiens, UniProt Q9P202); experiment: Holdup assay, DFNB31-3; format: binding
T1 sequence (Q9P202 1-907): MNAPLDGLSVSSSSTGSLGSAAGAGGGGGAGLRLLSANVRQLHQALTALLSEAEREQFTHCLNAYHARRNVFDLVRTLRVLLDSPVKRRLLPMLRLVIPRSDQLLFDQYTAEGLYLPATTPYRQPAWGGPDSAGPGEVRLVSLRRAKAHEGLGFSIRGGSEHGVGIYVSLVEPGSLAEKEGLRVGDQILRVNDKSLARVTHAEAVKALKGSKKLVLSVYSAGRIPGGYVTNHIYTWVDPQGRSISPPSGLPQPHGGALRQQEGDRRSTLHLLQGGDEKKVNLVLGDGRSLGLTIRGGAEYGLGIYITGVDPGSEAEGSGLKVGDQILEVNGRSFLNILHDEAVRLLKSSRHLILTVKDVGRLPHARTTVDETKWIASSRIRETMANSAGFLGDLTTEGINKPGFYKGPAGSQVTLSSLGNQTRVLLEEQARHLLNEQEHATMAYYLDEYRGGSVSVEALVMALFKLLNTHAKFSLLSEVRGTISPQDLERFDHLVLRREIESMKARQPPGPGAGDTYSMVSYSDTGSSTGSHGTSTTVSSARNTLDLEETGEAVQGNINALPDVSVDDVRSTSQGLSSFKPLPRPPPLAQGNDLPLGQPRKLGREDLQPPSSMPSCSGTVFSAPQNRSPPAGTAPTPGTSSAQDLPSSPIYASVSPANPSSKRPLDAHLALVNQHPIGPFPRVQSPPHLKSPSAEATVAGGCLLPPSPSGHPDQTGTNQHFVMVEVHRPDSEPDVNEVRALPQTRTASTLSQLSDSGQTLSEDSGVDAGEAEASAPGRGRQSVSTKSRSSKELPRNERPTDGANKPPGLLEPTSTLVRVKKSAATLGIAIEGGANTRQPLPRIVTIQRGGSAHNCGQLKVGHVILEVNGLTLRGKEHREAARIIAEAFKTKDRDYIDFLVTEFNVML

DVL3-1 = experiment: Holdup assay, DVL3-1; format: binding, human
INADL-9 = experiment: Holdup assay, INADL-9; format: binding, human
FRMPD2-3 = experiment: Holdup assay, FRMPD2-3; format: binding, human
INADL-4 = experiment: Holdup assay, INADL-4; format: binding, human
FRMPD4-1 = experiment: Holdup assay, FRMPD4-1; format: binding, human
GRIP1-4 = experiment: Holdup assay, GRIP1-4; format: binding, human
GORASP2-1 = GORASP2-1 (Homo sapiens, UniProt Q9H8Y8); experiment: Holdup assay, GORASP2-1; format: binding
MAGIX-1 = experiment: Holdup assay, MAGIX-1; format: binding, human
LNX1-2 = target: T2, LNX1-2 (Homo sapiens, UniProt Q8TBB1); experiment: Holdup assay, LNX1-2; format: binding
T2 sequence (Q8TBB1 385-467): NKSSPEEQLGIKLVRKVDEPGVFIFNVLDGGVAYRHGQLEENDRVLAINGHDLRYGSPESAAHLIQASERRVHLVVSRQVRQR

APBA3-1 = experiment: Holdup assay, APBA3-1; format: binding, human
LNX2-3 = experiment: Holdup assay, LNX2-3; format: binding, human
GIPC2-1 = target: T3, GIPC2-1 (Homo sapiens, UniProt Q8TF65); experiment: Holdup assay, GIPC2-1; format: binding
T3 sequence (Q8TF65 1-315): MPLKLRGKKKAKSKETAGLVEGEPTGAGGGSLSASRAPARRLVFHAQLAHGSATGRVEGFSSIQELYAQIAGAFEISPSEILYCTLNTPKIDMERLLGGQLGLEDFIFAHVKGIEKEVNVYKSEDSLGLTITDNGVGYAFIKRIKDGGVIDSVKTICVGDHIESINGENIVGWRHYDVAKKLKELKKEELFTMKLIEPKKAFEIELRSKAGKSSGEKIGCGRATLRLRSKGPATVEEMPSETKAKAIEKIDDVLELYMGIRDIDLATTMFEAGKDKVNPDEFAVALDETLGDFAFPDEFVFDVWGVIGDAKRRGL

Compound | BI (LIN7A-1) | LogKD (LIN7A-1) | BI (DFNB31-3) | LogKD (DFNB31-3) | BI (DVL3-1) | LogKD (DVL3-1) | BI (INADL-9) | LogKD (INADL-9) | BI (FRMPD2-3) | LogKD (FRMPD2-3) | BI (INADL-4) | LogKD (INADL-4) | BI (FRMPD4-1) | LogKD (FRMPD4-1) | BI (GRIP1-4) | LogKD (GRIP1-4) | Kd (GORASP2-1) [µM] | BI (GORASP2-1; GORASP2-1) | BI (MAGIX-1) | BI (APBA3-1) | further results
CC[C@H](C)[C@H](NC(=O)[C@H](CCC(N)=O)NC(=O)[C@@H](NC(=O)[C@H](Cc1c[nH]cn1)NC(=O)[C@H](CCC(N)=O)NC(=O)[C@H](CC(=O)O)NC(=O)[C@H](CCC(=O)O)NC(=O)[C@H](CC(=O)O)NC(=O)CCC(=O)NCCCOCCOCCOCCCNC(=O)CCCC[C@@H]1SC[C@@H]2NC(=O)N[C@@H]21)[C@@H](C)O)C(=O)N[C@H](C(=O)N[C@@H](CCCCN)C(=O)N[C@H](C(=O)O)C(C)C)[C@@H](C)O [PTEN_11] | -0.017 | 3.519 | 0.089 | 3.519 | 0.012 | 3.519 | 0.014 | 3.519 | -0.046 | 3.519 | -0.049 | 3.519 | -0.004 | 3.519 | 0.028 | 3.519 | 48 | 0.403 | 0.014 | -0.03 | LogKD (MAGIX-1): 3.519; BI (LNX1-2): 0.105; LogKD (APBA3-1): 3.519; BI (LNX2-3): -0.164; LogKD (LNX2-3): 3.519
CC[C@H](C)[C@H](NC(=O)[C@H](CCC(N)=O)NC(=O)[C@@H](NC(=O)[C@H](Cc1c[nH]cn1)NC(=O)[C@H](CCC(N)=O)NC(=O)[C@H](CC(=O)O)NC(=O)[C@H](CCC(=O)O)NC(=O)[C@H](CC(=O)O)NC(=O)CCC(=O)NCCCOCCOCCOCCCNC(=O)CCCC[C@@H]1SC[C@@H]2NC(=O)N[C@@H]21)[C@@H](C)O)C(=O)N[C@H](C(=O)N[C@@H](CCCCNC(C)=O)C(=O)N[C@H](C(=O)O)C(C)C)[C@@H](C)O [PTEN_Ac] | -0.07 | 3.605 | 0.275 | – | -0.002 | 3.605 | 0.072 | 3.605 | -0.064 | 3.605 | -0.106 | 3.605 | -0.076 | 3.605 | 0.038 | 3.605 | 36.7 | 0.418 | -0.034 | -0.113 | Kd (DFNB31-3): 70.9 µM; LogKD (MAGIX-1): 3.605; BI (LNX1-2): 0.164; LogKD (GIPC2-1): 3.605; LogKD (APBA3-1): 3.605
CC[C@H](C)[C@H](NC(=O)[C@H](CCC(N)=O)NC(=O)[C@@H](NC(=O)[C@H](Cc1c[nH]cn1)NC(=O)[C@H](CCC(N)=O)NC(=O)[C@H](CC(=O)O)NC(=O)[C@H](CCC(=O)O)NC(=O)[C@H](CC(=O)O)NC(=O)[C@H](Cc1ccccc1)NC(=O)[C@@H]1CCCN1C(=O)CCC(=O)NCCCOCCOCCOCCCNC(=O)CCCC[C@@H]1SC[C@@H]2NC(=O)N[C@@H]21)[C@@H](C)O)C(=O)N[C@H](C(=O)N[C@@H](CCCCN)C(=O)N[C@H](C(=O)O)C(C)C)[C@@H](C)O [PTEN_13] ({X1-Suc}-PFDEDQHTQITKV-OH) | -0.019 | – | 0.061 | 3.826 | -0.003 | – | -0.062 | – | -0.027 | – | -0.084 | – | -0.07 | – | -0.039 | – | – | 0.092 | 0.049 | 0.015 | LogKD (GORASP2-1; GORASP2-1): 3.826; BI (LNX1-2): 0.44; Kd (LNX1-2): 19.4 µM; BI (GIPC2-1): -0.087; BI (LNX2-3): -0.083
CC[C@H](C)[C@H](NC(=O)[C@H](CCC(N)=O)NC(=O)[C@@H](NC(=O)[C@H](Cc1c[nH]cn1)NC(=O)[C@H](CCC(N)=O)NC(=O)[C@H](CC(=O)O)NC(=O)[C@H](CCC(=O)O)NC(=O)[C@H](CC(=O)O)NC(=O)CCC(=O)NCCCOCCOCCOCCCNC(=O)CCCC[C@@H]1SC[C@@H]2NC(=O)N[C@@H]21)[C@@H](C)O)C(=O)N[C@H](C(=O)N[C@@H](CCCNC(=N)N)C(=O)N[C@H](C(=O)O)C(C)C)[C@@H](C)O [PTEN_KR] ({X1-Suc}-DEDQHTQITRV-OH) | -0.026 | 3.655 | -0.014 | 3.655 | 0.037 | 3.655 | 0.068 | 3.655 | -0.067 | 3.655 | -0.04 | 3.655 | -0.051 | 3.655 | -0.042 | 3.655 | 16 | 0.586 | 0.018 | -0.056 | LogKD (MAGIX-1): 3.655; LogKD (GIPC2-1): 3.655; LogKD (APBA3-1): 3.655; BI (LNX2-3): 0.021; LogKD (LNX2-3): 3.655
